Data published in article PMC5601625, “Defining a therapeutic window for kinase inhibitors in leukemia to avoid neutropenia” (Oncotarget, 2017).
Read-outs that look alike come from different tables or passages of the source.

Assays:
Experiment in all cases: Cell Titer Glo cell viability assay, 48 h
Type in all cases: cell-based, human
Settings in all cases: read-out: IC50 of inhibitors on cell lines, m (mean)
EOL-1 = test system: EOL-1
Experimental: (§1) The activity of the kinase inhibitor collection against a panel of human leukemia cell lines was determined in cell viability assays run over 48 h using the Cell Titer Glo reagent.
(§2) Figure 1 Effects of kinase inhibition on the proliferation of leukemia cells A. Human leukemia cell lines were treated with duplicate serial dilutions of kinase inhibitors and the effect on cell viability was determined by Cell Titer Glo assay after 48 hours. […] HL-60 cells were treated with serial dilutions of mTor/PI3K B. and MEK C. inhibitors and the effect on cell viability was determined after 48 hours. Data shown is the mean ± SEM of 3 independent experiments.
(§3) Leukemia and lymphoma cell lines were grown in RPMI containing 10% FCS. […] Cell lines are routinely tested for mycoplasma and genotyped by short tandem repeating (STR) profiling to confirm identity.
(§4) Compounds were obtained from SynMedChem and dissolved at […] in DMSO. Serial 2-fold dilutions of each compound were prepared in DMSO using a liquid handling robot (Janus, Perkin Elmer). Each dilution (100nL) was transferred to duplicate tissue culture plates containing 50 μL of media containing 5 × 10^3 cells using a 384 well pin tool. Cells were incubated for 48 h and cell viability was determined using Cell Titer Glow reagents as described by the manufacturer (Promega). Data was acquired using a luminescent plate reader (Envision, Perkin Elmer) and analysed using Activity Base (IDBS, Guilford, UK) and visualised using Spotfire (TIBCO, Palo Alto, CA) as described previously. Each cell line was assayed in independent experiments on at least two occasions. […] Serial 2-fold dilutions of each compound were prepared in media containing 0.2% DMSO and 50 μl of each dilution was added to 10^4 cells in 50 μl of media. Cells were incubated for 48 h and cell viability was determined using Cell Titer Glow assay as described above.

HEL.92.1.7 = test system: HEL.92.1.7
Experimental: as §1, §2, §3, §4

HL-60 = test system: HL-60
Experimental: as §1, §2, §3, §4

JURKAT = test system: JURKAT
Experimental: as §1, §2, §3, §4

K562 = test system: K562
Experimental: as §1, §2, §3, §4

KU-812 = test system: KU-812
Experimental: as §1, §2, §3, §4

MEG-01 = test system: MEG-01
Experimental: as §1, §2, §3, §4

MOLT4 = test system: MOLT4
Experimental: as §1, §2, §3, §4

MV4;11 = test system: MV4;11
Experimental: as §1, §2, §3, §4

OCI-AML3 = test system: OCI-AML3
Experimental: as §1, §2, §3, §4

THP-1 = test system: THP-1
Experimental: as §1, §2, §3, §4

U937 = test system: U937
Experimental: as §1, §2, §3, §4

[1] = Homo sapiens, EOL1, 48 h, mean of 2 independent experiments, 0 = less than 10 nM, cell line not given
[2] = Homo sapiens, 48 h, mean of 2 independent experiments, 0 = less than 10 nM, cell line not given
[3] = Homo sapiens, KU812, 48 h, mean of 2 independent experiments, 0 = less than 10 nM, cell line not given
[4] = Homo sapiens, MOLT-4, 48 h, mean of 2 independent experiments, 0 = less than 10 nM, cell line not given
[5] = Homo sapiens, OCI-AML-3, 48 h, mean of 2 independent experiments, 0 = less than 10 nM, cell line not given
[6] = Homo sapiens, U-937, 48 h, mean of 2 independent experiments, 0 = less than 10 nM, cell line not given
[7] = 48 h, mean of 2 independent experiments, 0 = less than 10 nM, cell line not given

SMILES | IC50 (HL-60; [2]) [µM] | IC50 (JURKAT; [2]) [µM] | IC50 (K562; [2]) [µM] | IC50 (MOLT4; [4]) [µM] | IC50 (MV4;11; [2]) [µM] | IC50 (OCI-AML3; [5]) [µM] | IC50 (THP-1; [2]) [µM] | IC50 (U937; [6]) [µM] | IC50 (HL-60; [7]) [µM] | IC50 (JURKAT; [7]) [µM] | IC50 (K562; [7]) [µM] | IC50 (MOLT4; [7]) [µM] | IC50 (EOL-1; [1]) [µM] | IC50 (HEL.92.1.7; [2]) [µM] | IC50 (KU-812; [3]) [µM] | IC50 (MEG-01; [2]) [µM] | IC50 (EOL-1; [7]) [µM] | IC50 (HEL.92.1.7; [7]) [µM] | IC50 (KU-812; [7]) [µM] | IC50 (MEG-01; [7]) [µM] | further results
CN(C)C/C=C/C(=O)Nc1cc2c(Nc3ccc(F)c(Cl)c3)ncnc2cc1O[C@H]1CCOC1 [TOVOK] | 1.8 | 2.11 | 5.72 | 2.37 | 0.44 | 3.36 | 4.31 | 2.06 | – | – | – | – | 0.68 | 1.94 | 2.71 | 5.02 | – | – | – | – | –
Cn1c(=O)c(Oc2ccc(F)cc2F)cc2cnc(NC3CCOCC3)nc21 [R1487] | – | – | – | – | – | – | – | – | > 10 | > 10 | > 10 | > 10 | – | – | – | – | 1.41 | > 10 | > 10 | > 10 | IC50 (MV4;11; [7]): > 10 µM; IC50 (OCI-AML3; [7]): > 10 µM; IC50 (THP-1; [7]): > 10 µM; IC50 (U937; [7]): > 10 µM
CC(C)[C@H](CO)Nc1nc(Nc2ccc(C(=O)O)c(Cl)c2)c2ncn(C(C)C)c2n1 [Purvalanol B] | > 10 | > 10 | > 10 | > 10 | 9.13 | > 10 | > 10 | > 10 | – | – | – | – | > 10 | > 10 | > 10 | > 10 | – | – | – | – | –
COc1ccc2c(c1OC)N=C(NC(=O)c1cccnc1)N1CCN=C21 [PIK-90] | – | – | – | – | – | – | – | – | 2.24 | 9.47 | > 10 | 3.92 | – | – | – | – | 5.09 | > 10 | > 10 | > 10 | IC50 (MV4;11; [7]): 6.41 µM; IC50 (OCI-AML3; [7]): 0.82 µM; IC50 (THP-1; [7]): 5.41 µM; IC50 (U937; [7]): 2.32 µM
CC(=O)Nc1nc(C)c(-c2ccc(Cl)c(S(=O)(=O)NCCO)c2)s1 [PIK-93] | – | – | – | – | – | – | – | – | – | – | – | – | – | – | – | – | – | – | – | – | IC50 (EOL-1): 0.39 µM; IC50 (HEL.92.1.7): 8.14 µM; IC50 (HL-60): 2.07 µM; IC50 (JURKAT): 3.4 µM; IC50 (K562): 9.98 µM; IC50 (KU-812): > 10 µM; IC50 (MEG-01): > 10 µM; IC50 (MOLT4): 2.95 µM; IC50 (MV4;11): 1.23 µM; IC50 (OCI-AML3): 1.8 µM; IC50 (THP-1): 7.05 µM; IC50 (U937): 1.29 µM

Now from value to compound, other results behind:

IC50 (HL-60; [2]) [µM] | IC50 (JURKAT; [2]) [µM] | IC50 (K562; [2]) [µM] | IC50 (MOLT4; [4]) [µM] | IC50 (MV4;11; [2]) [µM] | IC50 (OCI-AML3; [5]) [µM] | IC50 (THP-1; [2]) [µM] | IC50 (U937; [6]) [µM] | IC50 (HL-60; [7]) [µM] | IC50 (JURKAT; [7]) [µM] | IC50 (K562; [7]) [µM] | IC50 (MOLT4; [7]) [µM] | SMILES | IC50 (EOL-1; [1]) [µM] | IC50 (HEL.92.1.7; [2]) [µM] | IC50 (KU-812; [3]) [µM] | IC50 (MEG-01; [2]) [µM] | IC50 (EOL-1; [7]) [µM] | IC50 (HEL.92.1.7; [7]) [µM] | IC50 (KU-812; [7]) [µM] | IC50 (MEG-01; [7]) [µM] | further results
> 10 | > 10 | > 10 | > 10 | 7 | > 10 | > 10 | 6.6 | – | – | – | – | Oc1ccc(-c2nc(-c3ccncc3)c(-c3ccc(F)cc3)[nH]2)cc1 [SB202190] | 3.68 | > 10 | 9.36 | 6.83 | – | – | – | – | –
> 10 | 9.68 | > 10 | > 10 | 5.6 | > 10 | > 10 | 8.5 | – | – | – | – | CCCS(=O)(=O)Nc1ccc(F)c(C(=O)c2c[nH]c3ncc(Cl)cc23)c1F [PLX4720] | 4.2 | > 10 | 0.45 | 0.84 | – | – | – | – | –
7.58 | 4.38 | 8.85 | 9.77 | 0.08 | 4.87 | 7.42 | 7.44 | – | – | – | – | COc1cc2c(N3CCN(C(=O)Nc4ccc(OC(C)C)cc4)CC3)ncnc2cc1OCCCN1CCCCC1 [Tandutinib] | 0.02 | > 10 | 6.6 | 7.91 | – | – | – | – | –
– | – | – | – | – | – | – | – | 1.64 | 3.61 | 7.1 | 6.42 | CN(c1ccccc1CNc1nc(Nc2ccc3c(c2)CC(=O)N3)ncc1C(F)(F)F)S(C)(=O)=O [PF431396] | – | – | – | – | 1.52 | 4.07 | 5.24 | 6.32 | IC50 (MV4;11; [7]): 0.16 µM; IC50 (OCI-AML3; [7]): 2.96 µM; IC50 (THP-1; [7]): 3.66 µM; IC50 (U937; [7]): 1.23 µM
6.62 | 9.01 | 9.11 | 3.58 | 0.01 | > 10 | 7.37 | 5.04 | – | – | – | – | O=C(Nc1cccc(Cl)c1)Nc1ncc(CCNc2ncnc3ccsc23)s1 [SNS-314] | 0.02 | > 10 | 0.83 | 8.15 | – | – | – | – | –
